# In patent US9757408B2 (Hayashibara Co., Ltd., priority 2010, dated 2017):
# Legend:
# [1] = test system: mice with bacterial shock induced by LPS; test: LPS bacterial shock mice, survival, ANO, adenosine or inosine i.v. (Experiment 9); format: in vivo, BALB/c mice; conditions: LPS 18 mg/kg i.p., 127 mg/kg i.v. simultaneously
# Method: An LPS specimen derived from E. coli (055:B5), commercialized by Sigma-Aldrich Corporation, St. Louis, Mo. USA, was dissolved in PBS and intraperitoneally administered to all the seven mice in the four groups at a dose of 18 mg/kg body weight. […] Seven mice in the remaining one group were intravenously administered with PBS as a control in a volume of 0.2 mL/head (Experiment group 1). For each group, the survival number of mice was confirmed up to 7 to 43 hours after administering LPS and the survival rate (%) of mice in each group was determined.
# [2] = test system: mouse with severe acute pancreatitis induced by choline-deficient ethionine-added feed; test: Severe acute pancreatitis induced by choline-deficient ethionine-added feed, survival (Experiment 15); format: in vivo, CD1(ICR) mice; conditions: oral 124 mg/kg body weight/shot twice a day
# Source text: After seven days of a preliminary breeding, the mice were fasted for one day and allowed to freely take a choline-deficient ethionine-added feed, produced by Oriental Yeast Co., Ltd., Tokyo, Japan, for three days from the next day. Thereafter, the mice were fed on normal feed again and then fed on the choline-deficient ethionine-added feed. […] Eight mice in the remaining one group as a control were orally administered through a gastric tube with distilled water twice a day every morning and evening in a liquid volume of 0.2 mL/head/shot from the initiation of fasting. The survival number of mice in each group was macroscopically confirmed up to seven days from the initiation of taking the choline-deficient ethionine-added feed, and the survival rate (%) of mice in each group was determined. The survival rate (%) of mice was determined similarly as in Experiment 1.
# [3] = test system: picryl chloride-sensitized mice; test: Picryl chloride-sensitized mice atopic dermatitis, skin score (Experiment 16); format: in vivo, NC/Nga mice
# Source text: (§1) The results are in Table 19 in parallel.
# [4] = test system: IL-4 production of spleen cells; test: IL-4 production of spleen cells stimulated with anti-CD3 antibody, from gel-treated mice (Experiment 16); format: in vivo, NC/Nga mice
# Method: (§2) On Friday of the 6th week of the induction (46th day after initiating the application), all the mice were sacrificed, followed by isolating their spleens and collecting spleen cells in usual manner. […] To each well 2 μg/mL of “Purified Mouse CD3ε Monoclonal Antibody”, a product name of an anti-CD3 antibody, commercialized by Cosmo Bio Co., Ltd., Tokyo, Japan, was added, and the cells were incubated at 37° C. for three days in a 5% v/v CO2 incubator, followed by assaying the levels of cytokines in each supernatant thereof.
# as §1
# [5] = test system: IL-6 production of spleen cells; test: IL-6 production of spleen cells stimulated with anti-CD3 antibody, from gel-treated mice (Experiment 16); format: in vivo, NC/Nga mice
# Method: as §2, §1
# NHEK cells = test: Cytotoxicity (released LDH) of NHEK cells irradiated with ultraviolet B (Experiment 17); format: cell-based, human; conditions: NHEK cells, stimulation by ultraviolet rays
# [6] = test system: TNF-α production from NHEK cells; test: TNF-α production from NHEK cells irradiated with ultraviolet B (Experiment 17); format: cell-based, human; conditions: for TNF-α: NHEK cells, stimulation by ultraviolet rays
# Method: (§3) “CELLMATRIX TYPE IV”, a product name of collagen for tissue culture commercialized by Nitta Gelatin Inc., Osaka, Japan, which had been diluted with PBS(K-) by 10 times, was previously placed in “FALCON 35-3001”, a product name of 35 mm petri dish commercialized by Becton Dickinson and Company, NJ, USA, in an amount of 1 mL/plate, and then allowed to stand at ambient temperature for 10 min, followed by removing an excessive amount of CELLMATRIX, drying the petri dish in air, and washing it thrice with PBS(K-). […] The cells were cultured at 37° C. in a 5% v/v CO2 incubator. On the 2nd and 4th days after the cell inoculation, the medium was replaced with EpiLife medium free of EDGS (1 mL/plate). On the 5th day after the cell inoculation, the supernatant was removed, and the petri dish was washed twice by adding 1 mL/petri dish of Hanks' balanced salt solution (called “HBSS (−) buffer”, hereinafter). Further, 2 mL/petri dish of HBSS (−) buffer was added to the petri dish which was then placed in the position 15 cm apart from an ultraviolet ray light source and irradiated with 40 mJ/cm^2 of ultraviolet B radiation. […] As an ultraviolet ray light source, “NS-8F”, a light source for actual use commercialized by Sanwa Medical Co., Ltd., Okayama, Japan, equipped with an ultraviolet B radiation lamp was used, and the radiation dose was measured on “UVR-305/365D (II)”, an ultraviolet ray meter commercialized by Topcon Corporation, Tokyo, Japan. TNF-α was assayed by the same method as in Experiment 2. The remaining other cytokines were assayed with an IL-1α assay kit, commercialized by R & D Systems Inc., MN, USA, and an IL-8 assay kit commercialized by BioLegend, CA, USA.
# [7] = test system: IL-1α production from NHEK cells; test: IL-1α production from NHEK cells irradiated with ultraviolet B (Experiment 17); format: cell-based, human; conditions: for IL-1α: NHEK cells, stimulation by ultraviolet rays
# Method: as §3
# [8] = test system: TNF-α production from mouse intraperitoneal macrophages; test: IC50 for TNF-α production from mouse macrophages, LPS + IFN-γ, nucleic acid derivatives (Experiment 19); format: cell-based; conditions: Mus musculus, Macrophage, 20 h, read-out: IC50 Concentration TNF-α
# Source text: (§4) After completion of the culture, the supernatant in each well was collected and assayed for cytokines and prostaglandin E2 (called “PGE2”, hereinafter) with ELISA.
# [9] = test system: IL-6 production from mouse intraperitoneal macrophages; test: IC50 for IL-6 production from mouse macrophages, LPS + IFN-γ (Experiment 19); format: cell-based; conditions: mouse macrophages, LPS and IFN-γ, 20 hours
# Source text: as §4
# [10] = compared to mice applied with gel prepared by adding refined water (Experiment group 1)
# [11] = supernatant of spleen cells stimulated with anti-CD3 antibody, picryl chloride-sensitized mice applied with gel
# [12] = UVB 40 mJ/cm^2, supernatant at six hours
structure (smiles),measurement,setting,value
"OC[C@H]1O[C@@H](n2cnc3c(O)ncnc32)[C@H](O)[C@@H]1O [IN, inosine]","Survival rate (%) of mice, 7 Hours",[1]; 7 hours,100%
same,"Survival rate (%) of mice, 19 Hours",[1]; 19 hours,60%
same,"Survival rate (%) of mice, 26 Hours",[1]; 26 hours,40%
same,"Survival rate (%) of mice, 43 Hours",[1]; 43 hours,20%
same,"Survival rate (%) of mice, 48 Hours",[2]; 48 Hours,100.0%
same,"Survival rate (%) of mice, 70 Hours",[2]; 70 Hours,60.0%
same,"Survival rate (%) of mice, 78 Hours",[2]; 78 Hours,62.5%
same,"Survival rate (%) of mice, 94 Hours",[2]; 94 Hours,50.0%
same,"Survival rate (%) of mice, 102 Hours",[2]; 102 Hours,25.0%
same,"Survival rate (%) of mice, 144 Hours",[2]; 144 Hours,12.5%
same,"Skin score, 21 days after the day of sensitizing with picryl chloride","[3]; gel on dorsal skin twice a day (ANO 14 mg/mL, AN or IN 13 mg/mL, prednisolone 6.7 mg/mL from 3rd induction week), day 21",0.50
same,"Skin score, 24 days after the day of sensitizing with picryl chloride","[3]; gel on dorsal skin twice a day (ANO 14 mg/mL, AN or IN 13 mg/mL, prednisolone 6.7 mg/mL), day 24",0.50
same,"Skin score, 28 days after the day of sensitizing with picryl chloride","[3]; gel on dorsal skin twice a day (ANO 14 mg/mL, AN or IN 13 mg/mL, prednisolone 6.7 mg/mL), day 28",2.50
same,"Skin score, 31 days after the day of sensitizing with picryl chloride","[3]; gel on dorsal skin twice a day (ANO 14 mg/mL, AN or IN 13 mg/mL, prednisolone 6.7 mg/mL), day 31",3.22
same,"Skin score, 35 days after the day of sensitizing with picryl chloride","[3]; gel on dorsal skin twice a day (ANO 14 mg/mL, AN or IN 13 mg/mL, prednisolone 6.7 mg/mL), day 35",5.20
same,"Skin score, 39 days after the day of sensitizing with picryl chloride","[3]; gel on dorsal skin twice a day (ANO 14 mg/mL, AN or IN 13 mg/mL, prednisolone 6.7 mg/mL), day 39",5.66
same,"Skin score, 42 days after the day of sensitizing with picryl chloride","[3]; gel on dorsal skin twice a day (ANO 14 mg/mL, AN or IN 13 mg/mL, prednisolone 6.7 mg/mL), day 42",6.00
same,"Skin score, 45 days after the day of sensitizing with picryl chloride","[3]; gel on dorsal skin twice a day (ANO 14 mg/mL, AN or IN 13 mg/mL, prednisolone 6.7 mg/mL), day 45",5.43
same,production level of IL-4 of spleen cells stimulated with the anti-CD3 antibody,[4]; [10],showed no difference
same,Ratio of IL-4/IFN-γ,"[4]; spleen cells stimulated with anti-CD3 antibody, picryl chloride-sensitized mice applied with gel",0.70
same,Content of IL-4,[4]; [11],9.3 ng/mL
same,production level of IL-6 of spleen cells stimulated with the anti-CD3 antibody,[5]; [10],showed no difference
same,Content of IL-6,[5]; [11],150 ng/mL
same,LDH Activity,NHEK cells; 1 μM,0.34 absorbance
same,LDH Activity,NHEK cells; 5 μM,0.34 absorbance
same,LDH Activity,NHEK cells; 10 μM,0.32 absorbance
same,TNF-α,[6]; 1 μM,141 pg/mL
same,TNF-α,[6]; 5 μM,142 pg/mL
same,TNF-α,[6]; 10 μM,128 pg/mL
same,production of TNF-α from NHEK cells induced by ultraviolet rays,[6]; [12],did not influence
same,IL-1α,[7]; 1 μM,246 pg/mL
same,IL-1α,[7]; 5 μM,243 pg/mL
same,IL-1α,[7]; 10 μM,228 pg/mL
same,production of IL-1α from NHEK cells augmented by ultraviolet rays,[7]; [12],did not influence
same,IC50,[8],> 200 µM
same,IC50 Concentration IL-6,[9],Enhanced
